From US8377963B2, “Insulin-regulated aminopeptidase (IRAP) inhibitors and uses thereof” (Howard Florey Institute, priority 2007, dated 2013)

Experiments:
IRAP = molecular target: T1, IRAP (Homo sapiens, UniProt Q9UIQ6); experiment: IRAP enzymatic assay (hydrolysis of Leu-MCA); assay type: biochemical; details: substrate Leu-MCA, solubilized membranes of HEK 293T cells transfected with IRAP
T1 construct: expressed in transfected cells; host or cells: HEK 293T
Procedure: An in vitro enzymatic assay was used to initially assess IRAP inhibitory activity.
After solubilization, the membranes were pelleted by centrifugation at 23,100 g for 15 min at 4° C., and the supernatant was reserved as the source of IRAP activity. The enzymatic activities of IRAP were determined by the hydrolysis of the synthetic substrate Leu-MCA (Sigma-Aldrich, Missouri, USA) monitored by the release of a fluorogenic product, MCA, at excitation and emission wavelengths of 380 and 440 nm, respectively. Assays were performed in 96-well plates; each well contains between […] solubilized membrane protein, a range of concentration of substrate in a final volume of 100 μL 50 mM Tris-HCl buffer (pH 7.4). Non-specific hydrolysis of the substrate was corrected by subtracting the emission from incubations with membranes transfected with empty vector. Reactions proceeded at 37° C. for 30 min within a thermostatted FLEX station fluorescence microplate reader (Molecular Devices, Sunnyvale, Calif.). […] Km values of IRAP for Leu-MCA were determined from the kinetic studies. […] All data obtained were from at least three separate experiments performed in duplicate.

Recombinant human LTA4H = molecular target: T2, Recombinant human LTA4H (Homo sapiens, UniProt P09960); experiment: Leukotriene A4 hydrolase assay; assay type: biochemical; details: read-out: % inhibition of the catalytic activity of the enzyme
T2 construct: purchased Cayman Chemicals
T2 sequence (P09960 1-611): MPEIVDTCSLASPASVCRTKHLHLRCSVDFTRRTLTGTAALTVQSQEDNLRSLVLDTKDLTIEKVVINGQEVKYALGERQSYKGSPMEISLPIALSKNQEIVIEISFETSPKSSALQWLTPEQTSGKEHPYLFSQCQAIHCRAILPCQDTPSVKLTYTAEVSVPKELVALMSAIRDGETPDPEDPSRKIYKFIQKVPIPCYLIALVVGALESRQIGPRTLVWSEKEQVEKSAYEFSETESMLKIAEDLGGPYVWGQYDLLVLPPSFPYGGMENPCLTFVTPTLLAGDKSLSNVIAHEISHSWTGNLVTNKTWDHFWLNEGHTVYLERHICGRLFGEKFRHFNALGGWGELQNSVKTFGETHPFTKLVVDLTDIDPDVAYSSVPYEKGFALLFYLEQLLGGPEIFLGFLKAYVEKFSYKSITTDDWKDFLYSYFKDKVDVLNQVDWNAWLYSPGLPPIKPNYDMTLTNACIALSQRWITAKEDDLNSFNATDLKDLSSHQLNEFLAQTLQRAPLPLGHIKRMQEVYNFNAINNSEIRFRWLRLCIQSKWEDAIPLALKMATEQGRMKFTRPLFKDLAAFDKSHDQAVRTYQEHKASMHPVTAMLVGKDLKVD
Procedure: Leukotriene A4 hydrolase assay. Recombinant human LTA4H (Cayman Chemicals Michigan USA) (1-20 μg) was incubated at room temperature with alanine-p-nitroanilide as substrate in 50 mM Tris-HCl buffer, pH 8.0, containing 100 mM KCl with or without increasing concentrations of an inhibitor. The absorbance at 405 nm was measured at 10 min intervals.
(§1) Limited inhibition of control enzymes was observed.

[1] = molecular target: Angiotensin converting enzyme 1 (Homo sapiens, UniProt P12821); experiment: Angiotensin converting enzyme assay; assay type: biochemical; details: read-out: % inhibition of the catalytic activity of the enzyme
Angiotensin converting enzyme 1, sequence (P12821 30-1306): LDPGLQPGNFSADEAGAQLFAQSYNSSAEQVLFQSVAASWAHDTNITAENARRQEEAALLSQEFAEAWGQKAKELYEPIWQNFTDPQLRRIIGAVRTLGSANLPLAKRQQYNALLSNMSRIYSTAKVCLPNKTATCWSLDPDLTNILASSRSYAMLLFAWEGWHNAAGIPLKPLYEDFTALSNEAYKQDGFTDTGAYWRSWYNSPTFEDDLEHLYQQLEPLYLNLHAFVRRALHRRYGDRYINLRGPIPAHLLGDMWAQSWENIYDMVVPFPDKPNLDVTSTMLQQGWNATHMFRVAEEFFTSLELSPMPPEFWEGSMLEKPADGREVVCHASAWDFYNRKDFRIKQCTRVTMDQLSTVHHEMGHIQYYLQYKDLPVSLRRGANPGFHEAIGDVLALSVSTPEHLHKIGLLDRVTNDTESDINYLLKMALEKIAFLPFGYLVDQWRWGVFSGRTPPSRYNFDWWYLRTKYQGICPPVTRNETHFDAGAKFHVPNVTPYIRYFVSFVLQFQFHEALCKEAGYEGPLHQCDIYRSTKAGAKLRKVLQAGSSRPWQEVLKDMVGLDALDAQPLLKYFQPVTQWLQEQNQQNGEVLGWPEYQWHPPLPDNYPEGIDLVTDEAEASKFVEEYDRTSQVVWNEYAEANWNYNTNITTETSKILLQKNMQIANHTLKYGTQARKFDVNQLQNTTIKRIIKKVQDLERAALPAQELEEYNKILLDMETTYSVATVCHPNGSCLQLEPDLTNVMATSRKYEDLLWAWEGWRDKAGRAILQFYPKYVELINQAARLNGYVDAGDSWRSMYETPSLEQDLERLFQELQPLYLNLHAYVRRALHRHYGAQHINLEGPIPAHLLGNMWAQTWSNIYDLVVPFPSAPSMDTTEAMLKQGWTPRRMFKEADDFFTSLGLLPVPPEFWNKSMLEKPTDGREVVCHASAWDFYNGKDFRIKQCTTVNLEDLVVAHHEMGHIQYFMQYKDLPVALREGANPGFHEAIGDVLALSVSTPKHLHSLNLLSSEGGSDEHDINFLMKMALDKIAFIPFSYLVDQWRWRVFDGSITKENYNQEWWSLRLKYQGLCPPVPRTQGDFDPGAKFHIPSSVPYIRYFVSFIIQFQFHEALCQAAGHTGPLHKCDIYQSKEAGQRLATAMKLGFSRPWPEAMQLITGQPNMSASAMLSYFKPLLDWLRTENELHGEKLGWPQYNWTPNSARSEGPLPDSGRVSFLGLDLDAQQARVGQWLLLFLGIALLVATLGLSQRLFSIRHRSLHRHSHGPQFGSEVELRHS
Procedure: Angiotensin converting enzyme assay. The enzyme (final concentration 0.02 pmol/100 L) was incubated with 200 μL of assay solution that included 5 mmol/L HHL in 100 mmol/L potassium buffer (pH 8.3) that contained 300 mmol/L NaCl and 10^−4 mol/L ZnSO4 for 3 hours at 37° C. The enzymatic reaction was stopped by the addition of 1.5 mL of 0.28N NaOH, 100 μL of o-phthaldialdehyde (20 mg/mL) in methanol was added and the fluorescent reaction stopped by the addition of 200 μL of 3N HCl. The product, L-His-Leu, was measured fluorometrically (360 nm excitation and 500 nm emission).
as §1

Aminopeptidase N = molecular target: T3, Aminopeptidase N (Sus scrofa, UniProt P15145); experiment: Aminopeptidase N assay; assay type: biochemical; details: read-out: % inhibition of the catalytic activity of the enzyme
T3 construct: purchased Sigma Aldrich
T3 sequence (P15145 1-963): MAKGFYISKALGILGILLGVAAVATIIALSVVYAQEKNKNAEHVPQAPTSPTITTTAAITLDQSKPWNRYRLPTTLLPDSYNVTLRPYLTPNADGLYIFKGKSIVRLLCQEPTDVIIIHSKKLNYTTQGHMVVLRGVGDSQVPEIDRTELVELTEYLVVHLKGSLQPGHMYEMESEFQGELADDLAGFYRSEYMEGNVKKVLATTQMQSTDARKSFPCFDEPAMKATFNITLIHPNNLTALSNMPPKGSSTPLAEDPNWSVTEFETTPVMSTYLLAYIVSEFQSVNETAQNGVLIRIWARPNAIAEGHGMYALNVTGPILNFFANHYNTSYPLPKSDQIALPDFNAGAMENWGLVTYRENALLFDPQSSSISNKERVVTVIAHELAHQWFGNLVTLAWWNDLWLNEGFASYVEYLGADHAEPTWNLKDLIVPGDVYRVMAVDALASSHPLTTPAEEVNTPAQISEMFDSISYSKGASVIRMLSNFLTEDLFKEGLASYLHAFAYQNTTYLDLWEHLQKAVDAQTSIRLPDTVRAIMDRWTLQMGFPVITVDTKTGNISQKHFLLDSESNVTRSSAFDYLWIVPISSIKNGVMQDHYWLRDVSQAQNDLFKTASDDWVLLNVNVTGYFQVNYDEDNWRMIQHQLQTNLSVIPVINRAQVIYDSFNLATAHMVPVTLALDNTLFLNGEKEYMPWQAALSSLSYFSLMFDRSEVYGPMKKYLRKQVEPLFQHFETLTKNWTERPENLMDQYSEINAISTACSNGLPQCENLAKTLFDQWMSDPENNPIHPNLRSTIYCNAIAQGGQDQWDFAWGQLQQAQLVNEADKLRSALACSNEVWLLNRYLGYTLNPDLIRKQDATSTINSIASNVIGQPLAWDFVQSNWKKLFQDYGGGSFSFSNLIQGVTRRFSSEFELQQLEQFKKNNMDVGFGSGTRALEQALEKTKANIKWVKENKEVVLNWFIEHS
Procedure: Aminopeptidase N assay. 5 mU of aminopeptidase M (Sigma Aldrich) was incubated with 100 μM of substrate alanine-β-naphthylamide (Sigma Aldrich) in Tris buffered saline (50 mM Tris-HCl, 150 mM NaCl pH 7.5) at 25° C. IRAP inhibitors (1-10 μM) were added after 1 minute and fluorescence at 405 nm was followed.
as §1

[2] = test system: Glucose-6-phosphate dehydrogenase/glucose hexokinase; experiment: Glucose-6-phosphate dehydrogenase and hexokinase activity, fluorimetric assay; details: 100 μM
Procedure: Glucose-6-phosphate dehydrogenase and hexokinase activity. Glucose-6-phosphate dehydrogenase and hexokinase activity in the absence and presence of the compounds was determined in a fluorimetric assay. Ten mM Tris MgCl2 buffer (total volume of 200 ml) containing glucose-6-phosphate dehydrogenase, 0.3M ATP, 30 mM NADP+ was added to 96 well microtitre plate together with 20 μl of compound, a reading at excitation 350 nm and emission 510 nm was taken followed by the addition of hexokinase and another reading.

T1 sequence (Q9UIQ6 whole entry): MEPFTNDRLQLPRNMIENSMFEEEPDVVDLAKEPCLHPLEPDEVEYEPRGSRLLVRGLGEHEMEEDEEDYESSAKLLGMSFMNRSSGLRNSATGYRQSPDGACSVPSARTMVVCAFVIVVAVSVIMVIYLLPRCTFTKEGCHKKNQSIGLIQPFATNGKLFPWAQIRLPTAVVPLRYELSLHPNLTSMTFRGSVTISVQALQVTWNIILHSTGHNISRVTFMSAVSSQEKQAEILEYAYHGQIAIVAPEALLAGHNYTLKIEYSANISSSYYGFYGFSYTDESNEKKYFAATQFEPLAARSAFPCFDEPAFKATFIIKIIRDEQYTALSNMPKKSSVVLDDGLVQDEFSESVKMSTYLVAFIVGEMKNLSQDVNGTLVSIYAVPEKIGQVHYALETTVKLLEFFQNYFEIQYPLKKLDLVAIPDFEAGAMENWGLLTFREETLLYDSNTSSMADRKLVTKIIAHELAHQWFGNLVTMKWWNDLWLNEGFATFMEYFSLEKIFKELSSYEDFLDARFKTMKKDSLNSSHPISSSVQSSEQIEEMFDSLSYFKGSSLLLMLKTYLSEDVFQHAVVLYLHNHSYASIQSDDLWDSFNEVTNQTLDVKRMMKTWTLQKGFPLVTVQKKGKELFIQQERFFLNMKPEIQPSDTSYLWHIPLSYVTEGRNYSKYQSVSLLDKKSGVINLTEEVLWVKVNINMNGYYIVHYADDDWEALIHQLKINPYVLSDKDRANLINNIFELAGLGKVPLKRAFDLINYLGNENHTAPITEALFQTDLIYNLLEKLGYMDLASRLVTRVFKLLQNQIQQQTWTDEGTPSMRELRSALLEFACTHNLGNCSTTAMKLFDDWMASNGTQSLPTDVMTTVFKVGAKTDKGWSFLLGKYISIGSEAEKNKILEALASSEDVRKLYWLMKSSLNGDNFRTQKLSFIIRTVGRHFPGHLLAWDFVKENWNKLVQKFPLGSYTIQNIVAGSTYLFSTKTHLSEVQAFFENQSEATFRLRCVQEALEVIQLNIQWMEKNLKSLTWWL

IC50 (IRAP)	Ki (IRAP; calculated from IC50=Ki(1+[S]/Km), read-out: K1)	inhibition at 10 µM (Recombinant human LTA4H; 10 μM)	inhibition at 100 µM (Aminopeptidase N; 100 μM)	SMILES	inhibition at 100 µM (Recombinant human LTA4H)	inhibition at 10 µM [1]	inhibition at 100 µM [1]	inhibition at 10 µM (Aminopeptidase N)	% inhibition of the catalytic activity of the enzyme [2]
3 µM	2 µM	–	–	CCOC(=O)C1=C(N)Oc2cc(O)ccc2C1c1cccnc1 (stereo not shown) [reference compound]	–	–	–	–	–
–	–	–	–	CCOC(=O)C1=C(N)Oc2cc(O)ccc2C1c1cnc2ccccc2c1 (stereo not shown) [Compound 3, Ethyl 2-amino-7-hydroxy-4-quinolin-3-yl-4H-chromene-3-carboxylate]	4%	0%	3%	12%	0%
–	–	0%	14%	CCOC(=O)C1=C(NC(C)=O)Oc2cc(O)ccc2C1c1cnc2ccccc2c1 (stereo not shown) [Compound 4, Ethyl 2-(acetylamino)-7-hydroxy-4-quinolin-3-yl-4H-chromene-3-carboxylate]	25%	0%	0%	3%	–
